Experimental data taken from patent US20060189546A1, “Compounds for treating autoimmune and demyelinating diseases” (priority 2005, published 2006).

How the values were obtained:
[1] = tested on: Collagen Antibody Induced Arthritis; conditions: Lange et al., Annals of Rheumatoid Disease 64:599-605, 2005; cited from earlier work
B-lymphocyte cells = experiment: Cell Proliferation, B-Cell + LPS ([3H]thymidine incorporation); assay type: cell-based, balb/c mice; conditions: Mus musculus, B-Cell + LPS
Protocol: B-lymphocyte cells isolated from the spleen of balb/c mice weighing 17±1 g were used. Test compound and/or vehicle were incubated with the cells (1.5×10^6/ml) in the presence of 10 μg/ml lipopolysaccharide (LPS) in AIM-V medium pH 7.4 at 37° C. for 24 hours. [^3H]Thymidine (120 nM) was then added for an additional overnight incubation period. Thymidine incorporation was assessed by liquid scintillation counting.
(§1) Test compound-induced suppression of cell proliferation by 50 percent or more (≧50%) relative to vehicle control response indicates significant inhibitory activity.

IL-4 = experiment: Mediator release, IL-4 (Con A-stimulated PBML, sandwich ELISA); assay type: cell-based; conditions: Homo sapiens
Protocol: (§2) In this experiment, test compound and/or vehicle were preincubated with human peripheral blood mononuclear leukocyte (PBML, 1×10^6/ml) in RPMI buffer pH 7.4 for 2 hours. Concanavalin A (Con A, 20 μg/ml) was then added to stimulate the cells overnight in 5% CO2 at 37° C. IL-4 and IL-10 cytokine levels in the conditioned medium were then quantified using a sandwich ELISA kit. Compounds were screened at 10, 1, 0.1, 0.01 and 0.001 μM.

IL-10 = experiment: Mediator release, IL-10 (Con A-stimulated PBML, sandwich ELISA); assay type: cell-based; conditions: Homo sapiens, IL-10 release
Protocol: as §2

[2] = tested on: Experimental Autoimmune Encephalomyelitis (EAE); experiment: Acute EAE, daily dosing for 15 days (Example 5); assay type: in vivo, guinea pigs; conditions: Symadex 6 mg/kg, mitoxantrone 0.35 mg/kg
Protocol: Accordingly, three randomized cohorts of guinea pigs with EAE induced by the method of Example 2, were treated, respectively, with 6 mg/kg of Symadex™ (full salt hydrate) and 0.35 mg/kg of mitoxantrone. Animals were treated daily, by intraperitoneal injection, for 15 days, starting on day 7 post immunization. Controls were treated with vehicle. We reasoned that 15 consecutive, 6 mg/kg doses of Symadex™ would represent a level of drug exposure that would be commensurate with the “20 mg/kg every 72 hours” regimen in Example 4 and consistent with a mid level exposure between the 20 mg/kg and the 40 mg/kg schedule given weekly, in Example 2. The mitoxantrone dose was selected to reflect a typical high dose given to rats or mice by daily dosing in the prior art, but allometrically scaled to the guinea pig.

T-lymphocyte cells = experiment: Cell Proliferation, T-Cell + Con A ([3H]thymidine incorporation); assay type: cell-based, balb/c mice; conditions: Mus musculus, T-Cell + Con A
Protocol: T-lymphocyte cells isolated from thymus of balb/c mice weighing 17±1 g were used. Test compound and/or vehicle is incubated with the cells (4×10^6/ml) in the presence of 3 μg/mL Concanavalin A (Con A) in AIM-V medium pH 7.4 at 37° C. for 24 hours. [^3H]Thymidine (120 nM) was then added for an additional overnight incubation period. Thymidine incorporation was assessed by liquid scintillation counting.
as §1

[3] = 1 nM, read-out: % Growth Inhibition
[4] = 10 nM, read-out: % Growth Inhibition
[5] = 0.1 μM, read-out: % Growth Inhibition
[6] = 1 μM, read-out: % Growth Inhibition
[7] = 10 μM, read-out: % Growth Inhibition

In the case of `CN(Cc1cnc2nc(N)nc(N)c2n1)c1ccc(C(=O)N[C@@H](CCC(=O)O)C(=O)O)cc1` [Methotrexate], the “benefit in antibody induced arthritis models” value [1] is given as “diminishing benefit”.
With `O=C1c2c(O)ccc(O)c2C(=O)c2c(NCCNCCO)ccc(NCCNCCO)c21` [Mitoxantrone, reference compound] the IC50 (B-lymphocyte cells) was 7.31 nM, the inhibition at 0.001 µM (B-lymphocyte cells; [3]) was 18% and the inhibition at 0.01 µM (B-lymphocyte cells; [4]) was 54%. It also gave an inhibition at 0.1 µM (B-lymphocyte cells; [5]) of 93%, an inhibition at 1 µM (B-lymphocyte cells; [6]) of 102% and an inhibition at 10 µM (B-lymphocyte cells; [7]) of 102%. For the same compound, the % inhibition of IL-4 release at 0.001 µM (IL-4; [3]) was 11%, the % inhibition of IL-4 release at 0.01 µM (IL-4; [4]) was 13% and the % inhibition of IL-4 release at 0.1 µM (IL-4; [5]) was 18%. It also gave a % inhibition of IL-4 release at 1 µM (IL-4; [6]) of -4%, a % inhibition of IL-4 release at 10 µM (IL-4; [7]) of 108% and an IC50 (IL-4; IL-4 release) of 2960 nM. It also gave an IC50 (IL-10) of 759 nM, an inhibition at 0.001 µM (IL-10; [3]) of 2% and an inhibition at 0.01 µM (IL-10; [4]) of 1%. The inhibition at 0.1 µM (IL-10; [5]) was 5%, the inhibition at 1 µM (IL-10; [6]) was 60% and the inhibition at 10 µM (IL-10; [7]) was 102%. For the same compound, the “clinical score (neurological impairment)” value ([2]; daily i.p. for 15 days from day 7) was “the initial rise in neurological impairment is arrested”, the weight gain ([2]; daily i.p. for 15 days) was “impairs weight gain” and the “reduction of meningeal inflammation (M) pathology score” value ([2]; necropsy after 15 daily doses) was “statistically significant reduction in meningeal inflammation”. The “reduction of perivascular cuffing (P), myelitis (E) and demyelination (D) pathology scores” value ([2]; necropsy after 15 daily doses) was “statistically significant differences (p value<0.05) from control”, the IC50 (T-lymphocyte cells) was 32 nM and the inhibition at 0.001 µM (T-lymphocyte cells; [3]) was -1%. For the same compound, the inhibition at 0.01 µM (T-lymphocyte cells; [4]) was 19%, the inhibition at 0.1 µM (T-lymphocyte cells; [5]) was 80% and the inhibition at 1 µM (T-lymphocyte cells; [6]) was 103%. The inhibition at 10 µM (T-lymphocyte cells; [7]) was 103%.
